According to patent publication US11724980B2, “Quinones having high capacity retention for use as electrolytes in aqueous redox flow batteries” (President and Fellows of Harvard College, priority 2018, dated 2023):

Test: Full cell cycling against potassium ferro/ferricyanide posolyte
Details: from NMR and CV detection limits, full cell cycled 11 days
Experimental: Full cell cycling (i.e. with a ferro/ferricyanide-based posolyte) was performed with the same flow cell hardware but with a FUMASEP® E-620(K) membrane due to its high conductivity and low permeability of DBEAQ and ferricyanide compared to other membranes. For studies at pH 14, the posolyte volume was 30 mL, and its composition, when assembled, was 0.20 M potassium ferrocyanide, 0.08 M potassium ferricyanide, and 1 M KOH. The negolyte was prepared by dissolving 0.1 M 2,6-DBEAQ in its oxidized form in 1.2 M KOH solution, resulting in 0.1 M 2,6-DBEAQ, 1.2 M K+, and 1 M OH^− electrolyte solution. For studies at pH 12, both electrolytes comprised 10 mM OH^−; the pH was checked both with a pH meter and pH paper and adjusted where necessary. For all full cell studies, the negolyte was assembled in the fully discharged state. Galvanostatic cycling was performed at ±0.1 A/cm^2 at room temperature, with voltage limits of 0.6 and 1.4 V. To obtain the polarization curves, the cell was first charged to the desired state of charge and then polarized via linear sweep voltammetry at a rate of 100 mV/s. […] Electrochemical impedance spectroscopy (EIS) was performed at SOCs between 10 and 100% at open-circuit potential with a 10 mV perturbation and with frequency ranging from 1 to 300,000 Hz. […]

## O=C([O-])CCCOc1ccc2c(c1)C(=O)c1ccc(OCCCC(=O)[O-])cc1C2=O.[K+].[K+] [2,6-DBEAQ, 4,4′-((9,10-anthraquinone-2,6-diyl)dioxy)dibutyric acid]
  upper limit of capacity fade rate caused by decomposition and/or membrane crossover: ≤ 0.01 %/day
